Results as given in PMC5589570, “The antigenic identity of human class I MHC phosphopeptides is critically dependent upon phosphorylation status” (Oncotarget, 2017).
pKd: −log10 of the molar value. Read-outs that look alike come from different tables or passages of the source. Square brackets hold non-standard residues; d marks the D form. Ends that are not written are not given here. Peptide text beside a SMILES is read from it. pS = N[C@@H](COP(=O)(O)O)C(=O)O

What was measured:
HLA-A2 [1] = molecular target: T1, HLA-A2 (Homo sapiens, UniProt P04439, D140Y/D185E/D98H/E176V/E277Q/G131W/G231S/I119V/I121R/I166T/I218V/L300P/L318F/N151K/N90K/P208A/P217A/Q86G/Q94H/R138H/R169H/T345S); assay: Competitive peptide-MHC affinity assay (displacement of radiolabeled peptide); settings: competitive binding, IC50 of displacement of radiolabeled peptide taken as approximation of Kd; 100,000-fold concentration range, each concentration in triplicate; W6/32 capture; read-out: Kd (pMHC affinity for HLA-A2)
T1 construct: made in house
Method: HLA-A2 heavy chain was expressed in E. coli, refolded with β2M and the peptide […], and purified as described above. Competitive peptide binding assays were carried out as described. Test peptide concentrations covered a 100,000-fold range, with each concentration assayed in triplicate. MHC-peptide complexes were captured on microplates coated with monoclonal antibody W6/32 (to human HLA) and washed, and radioactivity quantified with a microscintillation counter. The concentration of test peptide that displaced 50% of the radiolabeled peptide (IC50) was calculated. In these conditions (in which the concentration of the label is less than the concentration of MHC and the IC50 is greater than or equal to the concentration of MHC), the IC50 is a reasonable approximation of the dissociation constant.

HLA-A2 [2] = molecular target: T1, HLA-A2; design: method as in PMID 18836451; settings: binding of peptide to HLA-A2, modified vs unmodified form; read-out: Kd (pMHC affinity for HLA-A2); cited from earlier work
TCRpCDC25b = assay: SPR (BIAcore) TCR/peptide-MHC binding, HLA-A2-peptide complex injected over immobilised TCR; design: species or system mice; settings: for specific binding of HLA-A2-peptide complex to immobilised TCRpCDC25b: responses compared with control surfaces (LDN5 and streptavidin), Figure 7A
Excerpt: Having established that phosphorylation has diverse effects on epitope structure, we aimed to test whether a phosphorylated epitope could be distinguished from its unmodified counterpart by the TCR. We previously generated phosphopeptide-specific CD8^+ T cells by immunising mice expressing a transgenic recombinant HLA-A*0201 molecule (AAD) with activated bone-marrow-derived dendritic cells pulsed with synthetic phosphopeptides corresponding to those naturally presented on the surface of human tumour cell lines. Despite the ability to isolate functional phosphopeptide specific T-cells, attempts to generate clonal populations of RQA_V specific T-cells for TCR isolation or produce soluble TCRs of sufficient quality from T-cell clones specific for PKD and RQI were unsuccessful. However we were able to generate soluble TCR (termed TCRpCDC25b) using cDNA sequences isolated from a T cell clone that recognised a phosphopeptide epitope derived from the CDC25b protein (GLLGpSPVRA, subsequently termed GLLGpS) of sufficient quality for surface plasmon resonance analysis.
To investigate if recognition was dependent on the GLLGS amino acid sequence, we also tested binding of immobilised TCRpCDC25b to HLA-A2 containing a different phosphopeptide featuring a p-Ser at position 5 (SLLTpSPPKA (termed SLLTpS) derived from Thyroid hormone receptor interacting protein 12). […] We then measured the strength of TCRpCDC25b phosphopeptide recognition by equilibrium affinity analysis, repeating injections of HLA-A2-GLLGpS over a range of concentrations (Figure 7B). […] In both orientations, the presence of low-level protein aggregates was evident at higher concentrations.
Experiments utilised a BIAcore 3000 and HBS-EP buffer, at a flow rate of 10 μl.min^−1. For HLA-peptide injections, recombinant TCRs were produced in the Drosophila expression system incorporating C-terminal biotinylation tags, biotinylated in vitro using BirA, and immobilised to streptavidin-coated CM5 surfaces. […] Data were analysed using BIAevaluation 3.1 and Origin graphing software.

Row | Compound | pKd (HLA-A2 [1]) | other results
1 | CC[C@H](C)[C@H](NC(=O)[C@H](CO)NC(=O)[C@H](C)NC(=O)[C@H](CCC(N)=O)NC(=O)[C@@H](N)CCCNC(=N)N)C(=O)N[C@@H](CCC(=O)O)C(=O)N[C@@H](CC(C)C)C(=O)N1CCC[C@H]1C(=O)N[C@@H](CO)C(=O)N[C@@H](CCSC)C(=O)N[C@@H](C)C(=O)N[C@H](C(=O)O)C(C)C [RQA_Vnp] | 7.59 | –
2 | RQApSLSISV [PKD2p, canonical phosphopeptide antigen derived from Protein Kinase D2] | – | pKd (HLA-A2 [2]): 7.41
3 | GLLGpSPVRA | – | specific binding of HLA-A2-peptide complex to immobilised TCRpCDC25b (TCRpCDC25b): specific binding; pKd (TCRpCDC25b; two independent equilibrium analyses, once in either orientation, Scatchard analyses and hyperbolic fitting, read-out: Kd values from both orientations (range)): 4.39 to 4.46
4 | CC[C@H](C)[C@H](NC(=O)[C@H](COP(=O)(O)O)NC(=O)[C@H](C)NC(=O)[C@H](CCC(N)=O)NC(=O)[C@@H](N)CCCNC(=N)N)C(=O)N[C@@H](CCC(=O)O)C(=O)N[C@@H](CC(C)C)C(=O)N1CCC[C@H]1C(=O)N[C@@H](CO)C(=O)N[C@@H](CCSC)C(=O)N[C@@H](C)C(=O)N[C@H](C(=O)O)C(C)C [RQA_Vp] | 7.22 | –
5 | CC[C@H](C)[C@H](NC(=O)[C@H](CCC(N)=O)NC(=O)[C@@H](N)CCCNC(=N)N)C(=O)N[C@@H](COP(=O)(O)O)C(=O)N[C@@H](CCC(N)=O)C(=O)N[C@@H](CC(=O)O)C(=O)N[C@H](C(=O)N[C@@H](CCCCN)C(=O)N[C@@H](CC(C)C)C(=O)O)C(C)C [RQIp] (H-RQI[pS]QDVKL-OH) | 7.59 | –
6 | SLLTpSPPKA [reference compound] | – | specific binding of HLA-A2-peptide complex to immobilised TCRpCDC25b (TCRpCDC25b): identical responses over TCRpCDC25b and control surfaces
7 | RQISQDVKL [RQInp] | 5.72 | –
